The test system of experiment [1] is HeLa. The experiment in a line: cells. The settings on record: Homo sapiens, 48 h.
Description: Cytotoxicity against human HeLa cells after 48 hrs by MTT assay
Experiment [2] has as its system Artemia salina. The experiment in a line: Toxicity in Artemia salina larvae after 24 hrs by microscopic analysis. It counts as functional.
Experiment [3] deals with NCI-H460. Nature of the experiment: Cytotoxicity against human NCI-H460 cells after 48 hrs by MTT assay. The class given is functional, cell-based. The settings on record: NCI-H460, 48 h. On the technique in general: Tetrazolium assays rely on reduction of a dye to a coloured formazan, in cell work by metabolically active cells.
In experiment [4] the test system is HepG2. Nature of the experiment: Cytotoxicity against human HepG2 cells after 48 hrs by MTT assay. The class given is functional, cell-based. The settings on record: HepG2, 48 h.
The subject of experiment [5] is HeLa. Nature of the experiment: Cell cycle arrest in human HeLa cells assessed as accumulation at G0/G1 phase at 40 ug/ml after 24 hrs by propidium iodide staining-based flow cytometry (reference value: 67.7%). It counts as functional.
The test system of experiment [6] is HeLa. The experiment in a line: Cell cycle arrest in human HeLa cells assessed as accumulation at G2/M phase at 10 ug/ml after 24 hrs by propidium iodide staining-based flow cytometry (reference value: 11.7%). The class given is functional. A general note: A flow cytometer gives signals particle by particle.
Experiment [7] relates to HeLa. The experiment in a line: Cell cycle arrest in human HeLa cells assessed as accumulation at S phase at 20 ug/ml after 24 hrs by propidium iodide staining-based flow cytometry (reference value: 20.6%). The class given is functional.
Experiment [8] has as its system HeLa. The experiment in a line: Cell cycle arrest in human HeLa cells assessed as accumulation at S phase at 10 ug/ml after 24 hrs by propidium iodide staining-based flow cytometry (reference value: 20.6%). It counts as functional.
The test system of experiment [9] is HeLa. The experiment in a line: Cell cycle arrest in human HeLa cells assessed as accumulation at S phase at 40 ug/ml after 24 hrs by propidium iodide staining-based flow cytometry (reference value: 20.6%). It counts as functional.
Experiment [10] has as its system HeLa. The experiment in a line: Cell cycle arrest in human HeLa cells assessed as accumulation at G0/G1 phase at 20 ug/ml after 24 hrs by propidium iodide staining-based flow cytometry (reference value: 67.7%). The class given is functional.
Experiment [11] deals with HeLa. Nature of the experiment: Cell cycle arrest in human HeLa cells assessed as accumulation at G2/M phase at 40 ug/ml after 24 hrs by propidium iodide staining-based flow cytometry (reference value: 11.7%). The class given is functional.
For experiment [12], the system named is HeLa. The experiment in a line: Cell cycle arrest in human HeLa cells assessed as accumulation at G2/M phase at 20 ug/ml after 24 hrs by propidium iodide staining-based flow cytometry (reference value: 11.7%). The class given is functional.
Experiment [13] relates to HeLa. Nature of the experiment: Cell cycle arrest in human HeLa cells assessed as accumulation at G0/G1 phase at 10 ug/ml after 24 hrs by propidium iodide staining-based flow cytometry (reference value: 67.7%). The class given is functional.

SMILES strings stand for the structures. Converted amounts (≈) assume the structure as drawn.

In the case of `CC(=O)N1N=C([C@H]2CC[C@H]3[C@@H]4CCC5=CC(=O)C=C[C@]5(C)[C@H]4CC[C@]23C)CC1c1ccccc1` (some centres undefined), in experiment [1], the IC50 (in general, the concentration that gives 50% inhibition) is greater than 50 µg/mL. Further, the LC50 (commonly the concentration that kills 50% of the test population) in experiment [2] stood at 18.9 µg/mL (≈ 41.5 µM).

As to `CC(=O)N1N=C([C@H]2CC[C@H]3[C@@H]4CCC5=CC(=O)C=C[C@]5(C)[C@H]4CC[C@]23C)CC1c1ccccc1Cl` (some centres undefined), the IC50 in [1] is greater than 50 µg/mL. Also, in experiment [2], the LC50 amounted to 21.7 µg/mL (≈ 44.2 µM).

In turn, `CC(=O)N1N=C([C@H]2CC[C@H]3[C@@H]4CCC5=CC(=O)C=C[C@]5(C)[C@H]4CC[C@]23C)CC1c1ccc(Cl)cc1` (some centres undefined) registered a half-maximal inhibitory concentration (IC50) in experiment [1] greater than 50 µg/mL. The LC50 in experiment [2] worked out at 36.6 µg/mL (≈ 74.6 µM).

Consider `CC(=O)N1N=C([C@H]2CC[C@H]3[C@@H]4CCC5=CC(=O)C=C[C@]5(C)[C@H]4CC[C@]23C)CC1c1ccccc1[N+](=O)[O-]` (some centres undefined), for which the IC50 in [1] is greater than 50 µg/mL. Moreover, in experiment [2], the LC50 came to 30.2 µg/mL (≈ 60.2 µM).

For `CC(=O)N1N=C([C@H]2CC[C@H]3[C@@H]4CCC5=CC(=O)C=C[C@]5(C)[C@H]4CC[C@]23C)CC1c1ccc([N+](=O)[O-])cc1` (some centres undefined), in experiment [1], the IC50 is greater than 50 µg/mL. The compound further came in with an LC50 in experiment [2] of 38.2 µg/mL (≈ 76.1 µM).

Compound `COc1ccccc1C1CC([C@H]2CC[C@H]3[C@@H]4CCC5=CC(=O)C=C[C@]5(C)[C@H]4CC[C@]23C)=NN1C(C)=O` (some centres undefined) displayed an IC50 in experiment [1] greater than 50 µg/mL. The compound further displayed an LC50 in experiment [2] of 44.9 µg/mL (≈ 92.2 µM).

In the case of `COc1ccc(C2CC([C@H]3CC[C@H]4[C@@H]5CCC6=CC(=O)C=C[C@]6(C)[C@H]5CC[C@]34C)=NN2C(C)=O)cc1` (some centres undefined), the IC50 in [1] is greater than 50 µg/mL. Also, the LC50 in [2] is greater than 50 µg/mL.

`CC(=O)N1N=C([C@H]2CC[C@H]3[C@@H]4CCC5=C(Cl)C(=O)C=C[C@]5(C)[C@H]4CC[C@]23C)CC1c1ccccc1` (some centres undefined): the IC50 in [3] came to 13.1 µg/mL (≈ 26.7 µM); in [1], 13.7 µg/mL (≈ 27.9 µM); in [4], 17.3 µg/mL (≈ 35.2 µM). The same compound registered an LC50 in experiment [2] of 4.99 µg/mL (≈ 10.2 µM).

With `CC(=O)N1N=C([C@H]2CC[C@H]3[C@@H]4CCC5=C(Cl)C(=O)C=C[C@]5(C)[C@H]4CC[C@]23C)CC1c1ccc(Cl)cc1` (some centres undefined), the IC50 was 13.9 µg/mL (≈ 26.4 µM) in [3], 26.6 µg/mL (≈ 50.6 µM) in experiment [1] and 25.3 µg/mL (≈ 48.1 µM) in experiment [4]. The LC50 in [2] is 10.4 µg/mL (≈ 19.8 µM).

Turning to `CC(=O)N1N=C([C@H]2CC[C@H]3[C@@H]4CCC5=C(Cl)C(=O)C=C[C@]5(C)[C@H]4CC[C@]23C)CC1c1ccccc1[N+](=O)[O-]` (some centres undefined), the figures for the IC50 in experiment [3], in experiment [1] and in experiment [4] were 14.8 µg/mL (≈ 27.6 µM), greater than 50 µg/mL and greater than 50 µg/mL, respectively. The LC50 in experiment [2] was 7.7 µg/mL (≈ 14.4 µM).

For `CC(=O)N1N=C([C@H]2CC[C@H]3[C@@H]4CCC5=C(Cl)C(=O)C=C[C@]5(C)[C@H]4CC[C@]23C)CC1c1ccc([N+](=O)[O-])cc1` (some centres undefined), the IC50 in experiment [3], in experiment [1] and in experiment [4] was greater than 50 µg/mL throughout. The same compound displayed an LC50 in experiment [2] of 8.43 µg/mL (≈ 15.7 µM).

In the case of `CC(=O)[C@H]1CC[C@H]2[C@@H]3CCC4=C(Cl)C(=O)C=C[C@]4(C)[C@H]3CC[C@]12C`, the results for the IC50 in [3], in [1] and in experiment [4] were 26.7 µg/mL (≈ 77 µM), greater than 50 µg/mL and greater than 50 µg/mL, respectively. In experiment [2], this compound registered an LC50 greater than 100 µg/mL.

Regarding `CC(=O)N1N=C([C@H]2CC[C@H]3[C@@H]4CCC5=C(Cl)C(=O)C=C[C@]5(C)[C@H]4CC[C@]23C)CC1c1ccccc1Cl` (mixture of isomers), the half-maximal inhibitory concentration (IC50) was 10.3 µg/mL in experiment [3], 12.5 µg/mL in experiment [1] and 24.3 µg/mL in experiment [4]. In addition, the Activity in [5] worked out at 47.6%; in experiment [6], 9.9%; in [7], 38.9%; in [8], 34.3%; in [9], 41.1%; in experiment [10], 51.4%. The Activity in experiment [11] stood at 11.3%; in [12], 9.7%; in experiment [13] it was 55.8%. In experiment [2], this compound returned an LC50 of 5.65 µg/mL.

On to `COc1ccccc1C1CC([C@H]2CC[C@H]3[C@@H]4CCC5=C(Cl)C(=O)C=C[C@]5(C)[C@H]4CC[C@]23C)=NN1C(C)=O` (mixture of isomers), for which the IC50 was 15.7 µg/mL in [3], 15.3 µg/mL in experiment [1] and 16.2 µg/mL in experiment [4]. Also, the LC50 in experiment [2] came to 9.92 µg/mL.

`COc1ccc(C2CC([C@H]3CC[C@H]4[C@@H]5CCC6=C(Cl)C(=O)C=C[C@]6(C)[C@H]5CC[C@]34C)=NN2C(C)=O)cc1` (mixture of isomers): the figures for the half-inhibitory concentration (IC50) in experiment [3], in experiment [1] and in experiment [4] were 17.9 µg/mL, 19.7 µg/mL and 16.9 µg/mL, respectively. For the same compound, the LC50 in experiment [2] is 27.3 µg/mL.

In the case of `O=c1[nH]cc(F)c(=O)[nH]1` [FLUOROURACIL], the IC50 in [3] was determined as 2.48 µg/mL (≈ 19.1 µM); in experiment [1], 0.887 µg/mL (≈ 6.82 µM).

For the compound `CC(=O)[C@H]1CC[C@H]2[C@@H]3CCC4=CC(=O)CC[C@]4(C)[C@H]3CC[C@]12C` [PROGESTERONE], the IC50 in experiment [1] was greater than 50 µg/mL. This compound also gave an LC50 in [2] greater than 100 µg/mL.

For the origin of these results see ChEMBL document CHEMBL2434963, “Synthesis and cytotoxic activity of some novel steroidal C-17 pyrazolinyl derivatives” (Eur J Med Chem, 2013).
